Values quoted from earlier work in US20150182489A1, “GOLD (III) COMPOUNDS AND USE FOR TREATING CANCER” (King Abdulaziz City for Science and Technology, priority 2013, published 2015).
Where two headings read alike, the source gives them in different places.

Compound | renal histopathology (rats; rats, 0.4 mg/kg intraperitoneally for 8 weeks (Ravindra et al)) | renal histopathology (rats; rats, 15 mg/kg of body weight intraperitoneally (Hanigan et al)) | renal histopathology (rats; single intraperitoneal dose of 7.5 mg/kg (Atasayara et al)) | hepatic histopathology (rats liver; 10 mg/kg (Avci et al)) | hepatic histopathology (rats liver; single intraperitoneal 6.5 mg/kg dose (Kart et al)) | hepatotoxicity relative to 5-FU treatment (rats liver; rats liver (El-Sayyad et al))
N.N.[Cl][Pt][Cl] [cisplatin, cis-diamminedichloroplatinum(II)] | marked proximal tubular dilation and desquamation along with acute tubular necrosis | grade 4 tubular necrosis | remarkable epithelial vacuolation, necrosis, and desquamation of cells with protein casts in renal tubules | sinusoidal congestion, hydropic and vacuolar degeneration, extensive disorganization in hepatocytes, and significant fibrosis around central venules and expanded periportal areas | moderate to severe hydropic degeneration in centrilobular zones extending towards the portal region | 
COc1cccc2c1C(=O)c1c(O)c3c(c(O)c1C2=O)C[C@@](O)(C(=O)CO)C[C@@H]3O[C@H]1C[C@H](N)[C@H](O)[C@H](C)O1 [doxorubicin] |  |  |  |  |  | increased hepatoxicity in comparison to 5-FU treatment
